Results reported in US20220221458A1, “NOROVIRUS-BINDING PEPTIDE” (Kao Corporation, priority 2019, published 2022).

System: norovirus VLPs (GII.4, GII.3, GII.17)
Assay: In vitro selection by cDNA display against VLPs with appearance frequency analysis of sequences
Conditions: count among peptide aptamer sequences obtained after in vitro selection cycles (7 cycles GII.4, 5 cycles GII.3 and GII.17)
Method: The constructed cDNA display and VLPs were incubated in 100 μL of a dialysis selection buffer (20 mM HEPES (pH 7.4), 150 mM NaCl, and 0.05% s Tween 20) at the concentrations shown in Table 9 below at 25° C. for 30 minutes. Subsequently, the resultant was diluted to 1 mL with the dialysis selection buffer, and was put in Float-A-Lyzer G2 Dialysis Device CE, 1000kD MWCO (manufactured by Spectrum Laboratories, Inc.) and was dialyzed with 1 L of the dialysis selection buffer as the external solution at 25° C. During the dialysis, the external solution was replaced with new one 3 times every 2 hours, and the dialysis was performed overnight (for 8 hours) after the 4th replacement. The dialysis product was concentrated with Amicon Ultra 100K (manufactured by Merck Millipore S.A.S.) at 14,000×g for 5 minutes.
To an immunoplate (C-BOTTOM, CLEAR, MICROLON (registered trademark), HIGH BINDING, manufactured by Greiner Bio-One), 100 μL of 3 μg/mL GII.3 or GII.17 VLP solution was added and immobilization was performed at 4° C. overnight. Subsequently, the solution was discarded, and 200 μL of a blocking agent (EMD Millipore™ Blok™ NSB Blocking agents, Thermo Fisher Scientific) was added, followed by gently stirring at room temperature for 2 hours for blocking. On this occasion, wells not immobilizing the VLP were also subjected to similar blocking to be used in preselection.
The solution was discarded from the wells, the wells were washed with 200 μL of a wash buffer (10 mM Hepes (pH 7.4), 150 mM NaCl, and 0.05% Tween 20) three times, and 100 μL of cDNA display (constructed from 1.5 pmol of mRNA-linker) was then put in the wells not immobilizing the VLP, followed by gently stirring at room temperature for 30 minutes to perform preselection. Subsequently, the supernatant containing cDNA display that had not bound to the blocking agent was put in the wells immobilizing the VLP, followed by gently stirring at room temperature for 30 minutes to be bound to the VLP. The supernatant was discarded, washing with 100 μL of the wash buffer was performed four times, and 100 μL of a 5′ SDS solution was then added, followed by incubation at 50° C. for 15 minutes to elute the bound cDNA display.
Subsequently, the VLP-cDNA display complex obtained above was diluted to 100 μL with a dialysis selection buffer, and 10 μL of a coprecipitating agent (Quick-Precip Plus Solution, manufactured by EdgeBio) and 220 μL of 100% ethanol were added, followed by centrifugation at 20,000×g for 5 minutes. Subsequently, the supernatant was discarded, and 1 mL of 70, ethanol was added for rinsing. […] The PCR program was (a) 98° C. for 2 minutes, (b) 95° C. for 20 seconds, (c) 69° C. for 20 seconds, (d) 72° C. for 20 seconds (steps (b) to (d) were performed 25 cycles), and (e) 72° C. for 1 minute.
After the in vitro selection cycle (7 cycles for GII.4 and 5 cycles for GII.3 and GII.17 based on the libraries of 7 cycles obtained by GII.4 dialysis), a sequence library was prepared by the following method, and the sequence information was analyzed. The preparation of the sequence library and the sequencing were performed according to the 16S Metagenomic Sequencing Library Preparation protocol (manufactured by Illumina, Inc.).
The Fastq file of the obtained sequence was converted to a Fasta file, all of the obtained sequences were simultaneously translated from the first base of the start codon (ATG) at position 115 to the third base of the cysteine codon (TGC) at position 156 of the library sequence (SEQ ID NO: 279) using software MEGA.

| Substance | Appearance Frequency |
| --- | --- |
| 255 (STLVCP; Designed peptide) [compound 255] | 6 |
| 261 (VPFPHH; Designed peptide) [compound 261] | 6 |
| 262 (VPLLSR; Designed peptide) [compound 262] | 6 |
| 14 (RSVRMH; Designed peptide) [compound 14] | 14 |
| 222 (NSIAHR; Designed peptide) [compound 222] | 6 |
| 171 (DWPYSR; Designed peptide) [compound 171] | 6 |
| 210 (LSLRSQ; Designed peptide) [compound 210] | 6 |
| 194 (HQTGRL; Designed peptide) [compound 194] | 6 |
| 160 (WAGHRH; Designed peptide) [compound 160] | 7 |
| 81 (HRSNGH; Designed peptide) [compound 81] | 8 |
| 37 (WEVALH; Designed peptide) [compound 37] | 11 |
| 165 (ARNHGS; Designed peptide) [compound 165] | 6 |
| 105 (EEMIVS; Designed peptide) [compound 105] | 7 |
| 46 (RVSLYD; Designed peptide) [compound 46] | 10 |
| 179 (GCLSHH; Designed peptide) [compound 179] | 6 |
| 177 (FTQDAV; Designed peptide) [compound 177] | 6 |
| 239 (RLRDPQ; Designed peptide) [compound 239] | 6 |
| 158 (VWYWTS; Designed peptide) [compound 158] | 7 |
| 106 (FPTGTT; Designed peptide) [compound 106] | 7 |
| 98 (VVWFTD; Designed peptide) [compound 98] | 8 |
| 17 (RIGHMR; Designed peptide) [compound 17] | 13 |
| 174 (FGFREL; Designed peptide) [compound 174] | 6 |
| 31 (HIPSRH; Designed peptide) [compound 31] | 11 |
| 223 (NSRYFT; Designed peptide) [compound 223] | 6 |
| 153 (TTKYMW; Designed peptide) [compound 153] | 7 |
| 186 (HDSRIR; Designed peptide) [compound 186] | 6 |

| Substance | Appearance Frequency |
| --- | --- |
| 227 (QFSQLG; Designed peptide) [compound 227] | 6 |
| 22 (GLRYRE; Designed peptide) [compound 22] | 12 |
| 13 (SVQSWK; Designed peptide) [compound 13] | 15 |
| 230 (QYCFVG; Designed peptide) [compound 230] | 6 |
| 183 (GMDLRS; Designed peptide) [compound 183] | 6 |
| 170 (DSKLHN; Designed peptide) [compound 170] | 6 |
| 167 (CLHFAL; Designed peptide) [compound 167] | 6 |
| 55 (GTRHPS; Designed peptide) [compound 55] | 9 |
| 117 (HHYRGL; Designed peptide) [compound 117] | 7 |
| 88 (SITVLY; Designed peptide) [compound 88] | 8 |
| 146 (RSAAGD; Designed peptide) [compound 146] | 7 |
| 119 (HYRSKS; Designed peptide) [compound 119] | 7 |
| 127 (LISRHD; Designed peptide) [compound 127] | 7 |
| 41 (GNIPGH; Designed peptide) [compound 41] | 10 |
| 25 (NLYDRF; Designed peptide) [compound 25] | 12 |
| 197 (HWLRSV; Designed peptide) [compound 197] | 6 |
| 256 (STSVDW; Designed peptide) [compound 256] | 6 |
| 163 (AFDGLG; Designed peptide) [compound 163] | 6 |
| 144 (RRGDNY; Designed peptide) [compound 144] | 7 |
| 242 (RTISGS; Designed peptide) [compound 242] | 6 |
| 225 (PWTVPN; Designed peptide) [compound 225] | 6 |
| 249 (SIITRR; Designed peptide) [compound 249] | 6 |
| 161 (WVYARR; Designed peptide) [compound 161] | 7 |
| 94 (TVASNN; Designed peptide) [compound 94] | 8 |
| 64 (RKLFRN; Designed peptide) [compound 64] | 9 |
| 205 (KHAWDL; Designed peptide) [compound 205] | 6 |

| Substance | Appearance Frequency |
| --- | --- |
| 201 (IKAHTR; Designed peptide) [compound 201] | 6 |
| 140 (RFVKRR; Designed peptide) [compound 140] | 7 |
| 15 (SIGVDR; Designed peptide) [compound 15] | 14 |
| 240 (RNHSRI; Designed peptide) [compound 240] | 6 |
| 169 (DRWGSK; Designed peptide) [compound 169] | 6 |
| 162 (YRARMS; Designed peptide) [compound 162] | 7 |
| 107 (FRECLY; Designed peptide) [compound 107] | 7 |
| 184 (GPCNSA; Designed peptide) [compound 184] | 6 |
| 253 (SSKSFA; Designed peptide) [compound 253] | 6 |
| 102 (AFTSHW; Designed peptide) [compound 102] | 7 |
| 207 (LHHSSY; Designed peptide) [compound 207] | 6 |
| 29 (DLLNSK; Designed peptide) [compound 29] | 11 |
| 172 (ECHHVH; Designed peptide) [compound 172] | 6 |
| 214 (MSNKMV; Designed peptide) [compound 214] | 6 |
| 151 (STYRSW; Designed peptide) [compound 151] | 7 |
| 217 (NDHDHH; Designed peptide) [compound 217] | 6 |
| 9 (GEHAHS; Designed peptide) [compound 9] | 15 |
| 219 (NKSFHR; Designed peptide) [compound 219] | 6 |
| 120 (IGKGMV; Designed peptide) [compound 120] | 7 |
| 142 (RIVGSA; Designed peptide) [compound 142] | 7 |
| 133 (NKYSHR; Designed peptide) [compound 133] | 7 |
| 45 (RPFTML; Designed peptide) [compound 45] | 10 |
| 236 (RIVLES; Designed peptide) [compound 236] | 6 |
| 176 (FQYAHW; Designed peptide) [compound 176] | 6 |
| 182 (GLLIPF; Designed peptide) [compound 182] | 6 |
| 157 (VRPSNG; Designed peptide) [compound 157] | 7 |

| Substance | Appearance Frequency |
| --- | --- |
| 199 (IGRTFH; Designed peptide) [compound 199] | 6 |
| 104 (DRVQSR; Designed peptide) [compound 104] | 7 |
| 193 (HMMSRL; Designed peptide) [compound 193] | 6 |
| 115 (GVNSGH; Designed peptide) [compound 115] | 7 |
| 131 (NHCPSR; Designed peptide) [compound 131] | 7 |
| 61 (PVRALC; Designed peptide) [compound 61] | 9 |
| 245 (RYMPVA; Designed peptide) [compound 245] | 6 |
| 118 (HSSFSS; Designed peptide) [compound 118] | 7 |
| 149 (SDRVIA; Designed peptide) [compound 149] | 7 |
| 259 (VGMHHS; Designed peptide) [compound 259] | 6 |
| 79 (GWYFHA; Designed peptide) [compound 79] | 8 |
| 47 (TTSHFK; Designed peptide) [compound 47] | 10 |
| 248 (SHWRSY; Designed peptide) [compound 248] | 6 |
| 203 (ITLIDT; Designed peptide) [compound 203] | 6 |
| 60 (NTHRHS; Designed peptide) [compound 60] | 9 |
| 4 (HLRSIR; Designed peptide) [compound 4] | 18 |
| 7 (GWHETE; Designed peptide) [compound 7] | 17 |
| 175 (FPFYHR; Designed peptide) [compound 175] | 6 |
| 204 (KACAHL; Designed peptide) [compound 204] | 6 |
| 51 (VMCPNR; Designed peptide) [compound 51] | 10 |
| 78 (GQRLTV; Designed peptide) [compound 78] | 8 |
| 72 (DFGQSS; Designed peptide) [compound 72] | 8 |
| 28 (VMMQCP; Designed peptide) [compound 28] | 12 |
| 211 (LTALSV; Designed peptide) [compound 211] | 6 |
